Experimental data as given in US20030228988A1, “Ozone solutions” (Otre AB, priority 2002, published 2003).
Read-outs that look alike come from different tables or passages of the source. One block for each compound: values may come before it.

Experiments:
[1] = Ozone stability in the presence of acetic and oxalic acid; details: for increase of the lifetime of the ozone (factor) compared with pure ozone solution: acid approximately 0.01M, ozone approximately 6 ppm
Protocol: The following procedure was applied in the analysis of ozone concentration. Magnetic stirrer was used to obtain a homogeneous solution. The ozone concentration, pH and temperature were registered every 30 seconds, until ozone no longer could be detected.
An aqueous ozone solution with a concentration of approximately 6 ppm was tapped directly from the ozone generator into a beaker. The ozone electrode was used to register the changes in concentration. Acetic or oxalic acid was added directly to the solution. The concentration of the acids was approximately 0.01M.

[2] = Ozone stability in the presence of different surfactants (ozone electrode); format: physicochemical; details: ozone approximately 6 ppm, surfactant approximately 0.1 mM, approximately the same pH
Protocol: Deionised water was used in all aqueous solutions. All experiments were made at room temperature, ˜23° C. The variation of the temperature between the different experiments was relatively small and should not have any significant effect on the outcome. All tests were made at least twice in order to verify the reproducibility. […] Magnetic stirrer was used to obtain a homogeneous solution. […] The concentration of the surfactants was approximately 0.1 mM. […] The solution was filtered to remove the formed precipitate, AgBr.

[3] = Ozone stability in the presence of different concentrations of SDS; format: physicochemical; details: 200 mM vs 0.1 mM SDS, ozone approximately 6 ppm
Protocol: One of the surfactants, SDS, was tested at two different concentrations: Low concentration (0.1 mM), where the surfactant exists […], and high concentration (200 mM), where the surfactant exists in the form of both micelles and linear (paraffinic) chains. […] However, in order to obtain these states the surfactant solution has to be heated.
Magnetic stirrer was used to obtain a homogeneous solution.
SDS was added directly to the aqueous ozone solution, yielding solutions having concentrations of 0.1 mM and 200 mM with respect to SDS The result is seen in FIG. 4, namely that the higher concentration of SDS increases the lifetime of ozone by a factor 5 compared with the lower concentration.

[4] = Oxidation of organic acids by ozone, 13C NMR and IR before and after ozone treatment; format: physicochemical; details: 0.1M acid bubbled with ozone for five hours
Protocol: The aqueous solutions of the acids were analysed using ^13C NMR and IR spectroscopy before and after treatment with ozone.
In order to verify that the organic acids had not been oxidised by ozone an additional test was made 300 ml of an aqueous solution of acid (0.1M, 30×10^−3 mol) was bubbled with ozone for five hours. The gaseous concentration of ozone was ˜100 g/m^3. The airflow was 0 2 l/minute, which gives 1.2 g ozone/h ([…]). The aqueous solutions were analysed using ^13C NMR and IR spectroscopy before and after treatment with ozone. The results are shown in FIGS. 9-12, namely that the peaks in the spectrograms of the pure acid solutions (FIGS. 9 and 11) had not changed their appearance after prolonged treatment with ozone (FIGS. 10 and 12)

effect on ozone stability [1]: positive effect on ozone stability
increase of the lifetime of the ozone (factor) compared with pure ozone solution [1]: 2
Compound: CC(=O)O [Acetic acid, acetic acid]

increase of the lifetime of ozone compared with a pure ozone solution ([2]; ~23° C.): three to four fold
increase of the lifetime of ozone (factor), higher concentration compared with the lower concentration [3]: 5
Compound: CCCCCCCCCCCCOS(=O)(=O)[O-].[Na+] [SDS, sodium dodecyl sulphate]

depletion rate of ozone relative to the depletion rate of pure ozone solution [2]: about half
Compound: CCCCCCCCCCCCO[C@@H]1O[C@H](CO)[C@@H](O[C@H]2O[C@H](CO)[C@@H](O)[C@H](O)[C@H]2O)[C@H](O)[C@H]1O [dodecyl b-D-maltoside]

effect on ozone stability ([1]; FIGS. 5 and 6): positive effect on ozone stability
increase of the lifetime of the ozone (factor) compared with pure ozone solution [1]: 2
decomposition / reaction of the acid after treatment with ozone (13C NMR, IR) [4]: does not react with ozone
Compound: O=C(O)C(=O)O [oxalic acid]
